From PubChem BioAssay (NCI)
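96-well plates; 48 h exposure; 5 concentrations. Endpoints by linear interpolation between flanking doses. Not reached: highest tested concentration assigned. GI50: concentration for 50% inhibition of growth. At the TGI there is no net growth.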

Experiments:
Assay in all cases: NCI anticancer screen, dose series, 48 h
786-0 renal = test system: 786-0 renal
EKVX NSCLC = test system: EKVX NSCLC
MDA-MB-231 breast = test system: MDA-MB-231 breast
SK-MEL-5 melanoma = test system: SK-MEL-5 melanoma
SNB-19 CNS = test system: SNB-19 CNS
NCI-H460 lung = test system: NCI-H460 lung
RPMI-8226 leukemia = test system: RPMI-8226 leukemia
OVCAR-8 ovarian = test system: OVCAR-8 ovarian
IGROV1 ovarian = test system: IGROV1 ovarian
OVCAR-4 ovarian = test system: OVCAR-4 ovarian

Structure (SMILES)	GI50 (786-0 renal)	TGI (786-0 renal)	GI50 (EKVX NSCLC)	TGI (EKVX NSCLC)	GI50 (MDA-MB-231 breast)	TGI (MDA-MB-231 breast)	GI50 (SK-MEL-5 melanoma)	TGI (SK-MEL-5 melanoma)	GI50 (SNB-19 CNS)	TGI (SNB-19 CNS)	GI50 (NCI-H460 lung)	TGI (NCI-H460 lung)	GI50 (RPMI-8226 leukemia)	TGI (RPMI-8226 leukemia)	GI50 (OVCAR-8 ovarian)	TGI (OVCAR-8 ovarian)	GI50 (IGROV1 ovarian)	TGI (IGROV1 ovarian)	GI50 (OVCAR-4 ovarian)	TGI (OVCAR-4 ovarian)
C=C1C(=O)O[C@H]2[C@H]1CC/C(COC(=O)NCCc1c[nH]c3ccc(Cl)cc13)=C\CC[C@@]1(C)O[C@@H]21	1.38 µM	2.79 µM	1.73 µM	3.53 µM	1.84 µM	3.44 µM	1.83 µM	3.33 µM	3.98 µM	14.8 µM	2.2 µM	4.64 µM	1.2 µM	4.21 µM	1.6 µM	3.26 µM	1.55 µM	3.11 µM	1.5 µM	3.05 µM
O=C(/C=C/C12c3ccccc3C(c3ccccc31)C1C(=O)NC(=O)C12)c1ccc(Cl)cc1 (centres undefined)	1.73 µM	3.16 µM	1.43 µM	2.87 µM	1.88 µM	4.3 µM	1.7 µM	3.08 µM	1.58 µM	3.04 µM	1.8 µM	4.31 µM	1.66 µM	4.5 µM	1.13 µM	2.66 µM	1.67 µM	3.4 µM	1.42 µM	2.76 µM
C[C@@H]1COCCN1c1cc(C2([S@@](C)(=N)=O)CC2)nc(-c2ccnc3[nH]ccc23)n1	2.7 µM	26.8 µM	5.78 µM	67.4 µM	8.18 µM	> 100 µM	6.87 µM	26.4 µM	7.72 µM	> 100 µM	3.09 µM	> 69.8 µM	6.21 µM	> 60.9 µM	10.9 µM	> 100 µM	5.11 µM	> 71.1 µM	3.41 µM	63.9 µM
N#CN1CC[C@H](C(=O)Nc2cc3cc(C(N)=O)ccc3cn2)C1	0.222 µM	–	0.258 µM	6.87 µM	0.0995 µM	> 24.5 µM	0.105 µM	2.21 µM	0.144 µM	> 100 µM	0.188 µM	> 44 µM	0.272 µM	1.46 µM	0.0993 µM	> 46.3 µM	0.387 µM	> 25.3 µM	0.041 µM	1.6 µM
O=C(Nc1cc(Oc2cc(F)c(NC(=O)C3(C(=O)Nc4ccc(F)cc4)CC3)cc2F)ccn1)C1CC1	3.98 µM	> 50.1 µM	2.42 µM	5.51 µM	2.43 µM	> 100 µM	1.52 µM	3.47 µM	3.75 µM	> 100 µM	3.27 µM	> 34.7 µM	2.95 µM	6.51 µM	3.25 µM	> 31.6 µM	2.85 µM	7.61 µM	3.93 µM	> 30.8 µM
COc1ccc(/C=C\c2cc(OC)c(OC)c(OC)c2)cc1OCC(=O)Nc1ccc2nc(C)sc2c1	7.55 µM	> 100 µM	4.05 µM	> 100 µM	5.45 µM	> 100 µM	1.97 µM	5.14 µM	3.89 µM	> 100 µM	3.36 µM	33.2 µM	1.98 µM	4.69 µM	2.12 µM	5.41 µM	3.72 µM	15.7 µM	2.64 µM	9.18 µM
COc1ccc(N(/C=C/C(=O)C(F)(F)F)CC(=O)c2ccc(Cl)cc2)cc1	20.7 µM	57.8 µM	25.3 µM	63.3 µM	10.4 µM	24.4 µM	15 µM	29.5 µM	18.8 µM	47.1 µM	13.4 µM	32.8 µM	13.4 µM	44.7 µM	13.5 µM	40 µM	6.14 µM	21.7 µM	18 µM	49.1 µM
C[C@]12CCNC(=O)C=C1CC[C@@H]1C2CC[C@@]2(C)C1CC[C@@H]2OC(=O)COc1ccc(N(CCCl)CCCl)cc1 (some centres undefined)	–	3.19 µM	–	40.3 µM	–	34.8 µM	–	24.6 µM	–	50.7 µM	–	7.26 µM	–	47.6 µM	–	17.8 µM	–	33.4 µM	–	20.5 µM
Nc1nc(=O)n([C@@H]2CS[C@H](CO)O2)cc1F	> 100 µM	> 100 µM	> 100 µM	> 100 µM	> 100 µM	> 100 µM	> 100 µM	> 100 µM	> 100 µM	> 100 µM	> 100 µM	> 100 µM	> 100 µM	> 100 µM	> 100 µM	> 100 µM	> 100 µM	> 100 µM	> 100 µM	> 100 µM
COc1cc2c(=O)n(CCN(C)C)c3c4cc5c(cc4ccc3c2cc1OC)OCO5	0.166 µM	0.672 µM	0.694 µM	4.7 µM	0.824 µM	3.53 µM	0.152 µM	0.559 µM	0.198 µM	8.41 µM	0.123 µM	0.592 µM	0.159 µM	0.8 µM	0.478 µM	> 50 µM	0.257 µM	2.55 µM	0.445 µM	5.53 µM
CC(=O)c1cc(C(=O)c2ccc3c(c2)Sc2ccccc2N3)c2c(C)cccn12	0.488 µM	7.29 µM	0.476 µM	> 100 µM	0.488 µM	10.6 µM	0.259 µM	4.56 µM	0.246 µM	> 100 µM	0.213 µM	4.76 µM	0.412 µM	83.4 µM	0.374 µM	> 31.8 µM	0.621 µM	> 100 µM	2.13 µM	> 100 µM
COc1cc(-n2ccnc2)cc(OC)c1OC	39.1 µM	> 100 µM	84.4 µM	> 100 µM	79 µM	> 100 µM	59 µM	> 100 µM	> 100 µM	> 100 µM	41.6 µM	> 100 µM	75.6 µM	> 100 µM	56.8 µM	> 100 µM	11.1 µM	51.6 µM	> 100 µM	> 100 µM
